Measurements reported in the NIST ThermoML archive (doi:10.1021/je900124n).
Where “and” joins values, the source holds several entries; their conditions need not be identical. Identical values can stand only once. ± gives the expanded uncertainty stated by the source.

Conditions: Fluid (supercritical or subcritical phases), Buoyancy - hydrostatic balance with magnetic suspension - two sinkers

CCC [propane]
Conditions	mass density
460 K, 1046.1 kPa	12.5822 ± 0.0038 kg/m3
460 K, 1046.4 kPa	12.585 ± 0.0038 kg/m3
460 K, 1046.5 kPa	12.5879 ± 0.0038 kg/m3
460 K, 1830.3 kPa	22.7747 ± 0.02 kg/m3
460 K, 1830.7 kPa	22.7788 ± 0.02 kg/m3 and 22.7791 ± 0.02 kg/m3
460 K, 1830.9 kPa	22.7814 ± 0.02 kg/m3
460 K, 2892.4 kPa	37.7704 ± 0.022 kg/m3 and 37.7706 ± 0.022 kg/m3
460 K, 2892.5 kPa	37.7721 ± 0.022 kg/m3 and 37.7722 ± 0.022 kg/m3
460 K, 2892.6 kPa	37.7743 ± 0.022 kg/m3
460 K, 4123 kPa	57.2169 ± 0.025 kg/m3
460 K, 4123.1 kPa	57.2175 ± 0.025 kg/m3
460 K, 4123.4 kPa	57.2232 ± 0.025 kg/m3
460 K, 4123.6 kPa	57.2271 ± 0.025 kg/m3
460 K, 4123.8 kPa	57.2284 ± 0.025 kg/m3
460 K, 4978.5 kPa	72.26 ± 0.012 kg/m3
460 K, 4978.6 kPa	72.2622 ± 0.012 kg/m3
460 K, 6345.6 kPa	99.2922 ± 0.016 kg/m3 [middle of 4 runs]
460 K, 8445 kPa	147.718 ± 0.022 kg/m3 and 147.719 ± 0.022 kg/m3 and 147.717 ± 0.022 kg/m3
460 K, 8445.1 kPa	147.721 ± 0.022 kg/m3
460 K, 8731.7 kPa	154.767 ± 0.037 kg/m3
460 K, 8731.9 kPa	154.768 ± 0.037 kg/m3
460 K, 8732 kPa	154.77 ± 0.037 kg/m3 and 154.768 ± 0.037 kg/m3
460 K, 11420 kPa	218.352 ± 0.048 kg/m3 [middle of 8 runs]
460.01 K, 687.74 kPa	8.1493 ± 0.0033 kg/m3
460.01 K, 687.75 kPa	8.1496 ± 0.0033 kg/m3 and 8.1495 ± 0.0033 kg/m3
460.01 K, 1046.4 kPa	12.5877 ± 0.0038 kg/m3
460.01 K, 1046.6 kPa	12.591 ± 0.0038 kg/m3
460.01 K, 4978.7 kPa	72.2625 ± 0.012 kg/m3
460.01 K, 4978.8 kPa	72.2648 ± 0.012 kg/m3
460.01 K, 4978.9 kPa	72.2665 ± 0.012 kg/m3 [middle of 4 runs]
460.01 K, 8434.9 kPa	147.459 ± 0.036 kg/m3
460.01 K, 8435 kPa	147.46 ± 0.036 kg/m3
460.01 K, 8435.1 kPa	147.462 ± 0.036 kg/m3 and 147.464 ± 0.036 kg/m3 and 147.461 ± 0.036 kg/m3
460.01 K, 8435.2 kPa	147.464 ± 0.036 kg/m3 and 147.463 ± 0.036 kg/m3 and 147.466 ± 0.036 kg/m3
480 K, 716.12 kPa	8.1077 ± 0.0033 kg/m3
480 K, 716.13 kPa	8.1078 ± 0.0033 kg/m3 and 8.1079 ± 0.0033 kg/m3 and 8.108 ± 0.0033 kg/m3
480 K, 1038.1 kPa	11.8882 ± 0.0037 kg/m3
480 K, 1924.9 kPa	22.769 ± 0.018 kg/m3 and 22.7696 ± 0.018 kg/m3
480 K, 1925 kPa	22.771 ± 0.018 kg/m3
480 K, 1925.1 kPa	22.7716 ± 0.018 kg/m3 and 22.7708 ± 0.018 kg/m3
480 K, 3069 kPa	37.9021 ± 0.021 kg/m3
480 K, 3069.2 kPa	37.9044 ± 0.021 kg/m3 and 37.905 ± 0.021 kg/m3
480 K, 3069.5 kPa	37.9086 ± 0.021 kg/m3
480 K, 3069.6 kPa	37.9115 ± 0.021 kg/m3
480 K, 4376.6 kPa	56.9392 ± 0.01 kg/m3
480 K, 4376.8 kPa	56.9424 ± 0.01 kg/m3
480 K, 4377.1 kPa	56.9487 ± 0.01 kg/m3
480 K, 4377.2 kPa	56.9487 ± 0.01 kg/m3
480 K, 4377.6 kPa	56.955 ± 0.01 kg/m3
480 K, 5340.5 kPa	72.2831 ± 0.012 kg/m3 and 72.2827 ± 0.012 kg/m3
480 K, 5340.6 kPa	72.285 ± 0.012 kg/m3
480 K, 6880.9 kPa	99.2607 ± 0.016 kg/m3 and 99.2626 ± 0.016 kg/m3
480 K, 6881 kPa	99.2628 ± 0.016 kg/m3
480 K, 9330.8 kPa	147.276 ± 0.033 kg/m3 and 147.278 ± 0.033 kg/m3
480 K, 9330.9 kPa	147.278 ± 0.033 kg/m3 and 147.275 ± 0.033 kg/m3
480 K, 9331 kPa	147.279 ± 0.033 kg/m3
480 K, 9343.8 kPa	147.548 ± 0.022 kg/m3
480 K, 9343.9 kPa	147.549 ± 0.022 kg/m3 and 147.552 ± 0.022 kg/m3
480 K, 9344 kPa	147.551 ± 0.022 kg/m3
480 K, 9344.1 kPa	147.55 ± 0.022 kg/m3
480 K, 9689.8 kPa	154.575 ± 0.034 kg/m3
480 K, 9690 kPa	154.576 ± 0.034 kg/m3
480 K, 9690.1 kPa	154.579 ± 0.034 kg/m3
480 K, 9690.2 kPa	154.581 ± 0.034 kg/m3 and 154.58 ± 0.034 kg/m3
480 K, 13007 kPa	218.012 ± 0.041 kg/m3 and 218.013 ± 0.041 kg/m3 and 218.014 ± 0.041 kg/m3
480.01 K, 399.65 kPa	4.4746 ± 0.0029 kg/m3 and 4.4747 ± 0.0029 kg/m3 and 4.4744 ± 0.0029 kg/m3
480.01 K, 1038.8 kPa	11.899 ± 0.0037 kg/m3
480.01 K, 1039.1 kPa	11.9024 ± 0.0037 kg/m3
480.01 K, 1039.3 kPa	11.9056 ± 0.0037 kg/m3
480.01 K, 1041.9 kPa	11.9354 ± 0.0037 kg/m3
480.01 K, 5340.5 kPa	72.2834 ± 0.012 kg/m3 and 72.2836 ± 0.012 kg/m3
480.01 K, 5340.6 kPa	72.2841 ± 0.012 kg/m3 and 72.2848 ± 0.012 kg/m3 and 72.2843 ± 0.012 kg/m3
480.01 K, 6880.9 kPa	99.2609 ± 0.016 kg/m3 and 99.2601 ± 0.016 kg/m3
480.01 K, 9330.9 kPa	147.277 ± 0.033 kg/m3
480.01 K, 9331 kPa	147.28 ± 0.033 kg/m3 and 147.281 ± 0.033 kg/m3
480.01 K, 13007 kPa	218.014 ± 0.041 kg/m3
480.01 K, 13008 kPa	218.016 ± 0.041 kg/m3
500 K, 415.04 kPa	4.4539 ± 0.0029 kg/m3 and 4.454 ± 0.0029 kg/m3
500 K, 415.05 kPa	4.454 ± 0.0029 kg/m3
500 K, 744.3 kPa	8.0688 ± 0.0033 kg/m3
500 K, 744.34 kPa	8.0689 ± 0.0033 kg/m3
500 K, 1058.4 kPa	11.5875 ± 0.0037 kg/m3 and 11.5868 ± 0.0037 kg/m3
500 K, 2016.7 kPa	22.7375 ± 0.018 kg/m3
500 K, 2016.8 kPa	22.7381 ± 0.018 kg/m3
500 K, 2016.9 kPa	22.7385 ± 0.018 kg/m3
500 K, 2017 kPa	22.7394 ± 0.018 kg/m3
500 K, 3242.8 kPa	37.9947 ± 0.019 kg/m3
500 K, 3243.6 kPa	38.0051 ± 0.019 kg/m3
500 K, 3243.7 kPa	38.0059 ± 0.019 kg/m3 and 38.0062 ± 0.019 kg/m3
500 K, 3243.9 kPa	38.0086 ± 0.019 kg/m3
500 K, 4643.7 kPa	56.9284 ± 0.01 kg/m3
500 K, 4644 kPa	56.9317 ± 0.01 kg/m3
500 K, 4644.4 kPa	56.9376 ± 0.01 kg/m3
500 K, 4644.5 kPa	56.9398 ± 0.01 kg/m3
500 K, 4644.6 kPa	56.941 ± 0.01 kg/m3
500 K, 7408.7 kPa	99.2014 ± 0.016 kg/m3 and 99.1992 ± 0.016 kg/m3
500 K, 7408.8 kPa	99.1996 ± 0.016 kg/m3 and 99.1999 ± 0.016 kg/m3
500 K, 10218 kPa	147.109 ± 0.031 kg/m3 and 147.114 ± 0.031 kg/m3
500 K, 10219 kPa	147.115 ± 0.031 kg/m3
500 K, 10234 kPa	147.392 ± 0.022 kg/m3 and 147.391 ± 0.022 kg/m3 and 147.393 ± 0.022 kg/m3
500 K, 10637 kPa	154.378 ± 0.032 kg/m3 [middle of 5 runs]
500 K, 14582 kPa	217.649 ± 0.038 kg/m3 and 217.645 ± 0.038 kg/m3 and 217.644 ± 0.038 kg/m3
500 K, 14583 kPa	217.649 ± 0.038 kg/m3
500.01 K, 415.04 kPa	4.4539 ± 0.0029 kg/m3
500.01 K, 744.34 kPa	8.069 ± 0.0033 kg/m3
500.01 K, 744.35 kPa	8.069 ± 0.0033 kg/m3
500.01 K, 1058.3 kPa	11.5848 ± 0.0037 kg/m3
500.01 K, 1058.7 kPa	11.5888 ± 0.0037 kg/m3
500.01 K, 1059.3 kPa	11.5965 ± 0.0037 kg/m3
500.01 K, 5697.7 kPa	72.2794 ± 0.012 kg/m3 and 72.2805 ± 0.012 kg/m3 and 72.2784 ± 0.012 kg/m3
500.01 K, 5697.8 kPa	72.2813 ± 0.012 kg/m3 [middle of 4 runs]
500.01 K, 5697.9 kPa	72.2822 ± 0.012 kg/m3
500.01 K, 10218 kPa	147.112 ± 0.031 kg/m3 and 147.116 ± 0.031 kg/m3
500.01 K, 10219 kPa	147.118 ± 0.031 kg/m3 and 147.116 ± 0.031 kg/m3
500.01 K, 14582 kPa	217.641 ± 0.038 kg/m3 and 217.644 ± 0.038 kg/m3
500.01 K, 14583 kPa	217.647 ± 0.038 kg/m3
